Patent US20230302014A1, “USES OF GLUCOCORTICOID RECEPTOR (GR) ANTAGONIST AND ANDROGEN RECEPTOR (AR) DEGRADER COMBINATIONS” (ORIC Pharmaceuticals, Inc., priority 2020, published 2023)

What was measured:
Assay type in all cases: cell-based, Human
GR protein = experiment: Western blot of GR protein after dose-dependent or time-dependent AR degrader treatment; settings: LNCaP and CWR22PC cells, 3 days, increasing doses 3-1000 nM
Description: (§1) LNCaP and CWR22PC cells were plated in seven 15-cm dishes (Corning#353025) at a density of 5 million cells per dish in RPMI-1640 media supplemented with 10% charcoal-stripped serum (CSS; OmegaScientific#FB4). After 24 hours, the cells were treated with 0, 3, 10, 30, 100, 300 and 1000 nM of ARD1 or ARD2 and incubated at 37° C. for 3 days. The cells were then trypsinized (Corning#25-053-CI) and harvested for transcript (RT-qPCR) and protein (western blot) analysis.
5 million of LNCaP and CWR22PC cells per dish were plated in five 15-cm dishes in 20 mL of RPMI-1640 media supplemented with 10% charcoal-stripped serum (CSS) and cultured at 37° C. for 24 hours. Cells were treated with 30 nM of dexamethasone and with 100 nM of ARD1 or ARD2 and maintained at 37° C. until harvest. On Day 0, 6, 10, 13, and 15, cells were trypsinized, cell pellets were washed with 1XPBS and then divided for mRNA and protein preparation.
Cell pellets were washed with PBS and lysed in RIPA buffer (VWR#AAJ63306-AK) supplemented with […] (VWR #AAJ65789-LQ). Resuspended cells were briefly sonicated for ~30 seconds using a probe sonicator and incubated on ice for 40 minutes, followed with centrifugation at 12,000 rpm for 15 minutes at 4° C. to collect the supernatant. Protein concentration was quantitated using Quick Start™ Bradford Protein Assay Kit (Bio-Rad #5000201). […]

AR mRNA = experiment: RT-qPCR of AR mRNA after dose-dependent AR degrader treatment; settings: LNCaP and CWR22PC cells, 3 days, increasing doses 3-1000 nM
Description: as §1
Adherent cells or cell pellets harvested for mRNA analysis were first washed once with PBS and then resuspended in 600 µL of RLT lysis buffer (Qiagen Inc.) supplemented with 1% of betamercaptoethanol. RNA was extracted by QIAcube using the RNeasy Mini QIAcube kit (Qiagen#74116) according to manufacturer’s instructions. The extracted RNA samples were then quantified using a Nanodrop 8000 Spectrophotometer. RT-qPCR reactions were set up in triplicate using 3 µL of 3 ng/ µL of RNA in 7 µL of pre-mixed SensiFAST™ SYBR No-ROX One-Step Kit reagents (BIOLINE# BIO-98005). The RT-qPCR reactions were run on a Bio-Rad CFX384 Real-Time PCR System and data was plotted with GraphPad Prism 8 software.
LNCaP and CWR22PC cells were plated in seven 10-cm dishes (Corning#353003) at a density of 2 million cells per dish in RPMI-1640 media supplemented with 10% charcoal-stripped serum (CSS; OmegaScientific#FB4). […]

PSA = PSA AlphaLISA assay of cell supernatant (PSA secretion); settings: CWR22PC; CSS media; 21 days; 0.1 nM R1881 + 1 µM ARV-110, + 30 nM dexamethasone, + 0.5 µM compound 1
[1] = tested on: AR target genes KLK3, KLK4, NKX3.1, FKBP5; experiment: Target gene assay (RT-qPCR, R1881-induced AR target genes); settings: 100 pM R1881; for AR target gene FKBP5 induced by R1881 / AR target gene KLK3 induced by R1881 / AR target gene KLK4 induced by R1881 / AR target gene NKX3.1 induced by R1881: 24 hours post treatment
Description: (§2) 10,000 LNCaP and CWR22PC cells per well were plated in triplicate in poly-lysine coated 96-well plates (ThermoFisher#152039) in 200 µL of RPMI-1640 media supplemented with 10% charcoal-stripped serum. 24 hours later, cells were treated with 100 pM of R1881 and 8-point dilution for enzalutamide, ARD1 or ARD2 with concentrations ranging from 1 µM to 0.46 nM. After incubation at 37° C. for 24 hours, media was removed, and cells were washed once with PBS. 55 µL per well of iScript RT-qPCR sample preparation reagent (Bio-Rad #1708898) was added and incubated for 2 minutes before lysate was collected for mRNA analysis. RT-qPCR was set up in triplicate using 3 µL of lysate plus 7 µL of pre-mixed SensiFAST™ SYBR No-ROX One-Step Kit reagents (BIOLINE, Cat# BIO-98005) per reaction. The RT-qPCR reactions were run on a Bio-Rad CFX384 Real-Time PCR System and data was plotted with GraphPad Prism 8 software.
as §2, with “15,000” for “10,000”, “24 hours later, cells were treated with 100 pM of R1881 and 8-point dilution for enzalutamide, ARD1 or ARD2 with concentrations ranging from 1 µM to 0.46 nM.” left out, “75” for “55”

For `N#Cc1ccc(O[C@H]2CC[C@H](NC(=O)c3ccc(N4CCC(CN5CCN(c6cc7c(cc6F)C(=O)N(C6CCC(=O)NC6=O)C7=O)CC5)CC4)nn3)CC2)cc1Cl` (stereo partly drawn) [ARV-110, N-[trans-4-(3-chloro-4-cyanophenoxy)cyclohexyl]-6-[4-[[4-[2-(2,6-dioxo-3-piperidinyl)-6-fluoro-2,3-dihydro-1,3-dioxo-1H-isoindol-5-yl]-1-piperazinyl]methyl]-1-piperidinyl]-3-pyridazinecarboxamide], the GR protein levels (GR protein) was “minimally impacting”, the AR transcript levels (AR mRNA) was “minimally impacting” and the “R1881-induced PSA secretion” value (PSA) was “blunts”. The “AR target gene FKBP5 induced by R1881” value ([1]; CWR22PC cells) was “inhibit”, the “AR target gene KLK3 induced by R1881” value ([1]; CWR22PC cells) was “inhibit” and the “AR target gene KLK4 induced by R1881” value ([1]; CWR22PC cells) was “inhibit”. The “AR target gene NKX3.1 induced by R1881” value ([1]; CWR22PC cells) was “inhibit”, the “expression of AR target genes including KLK3, KLK4, NKX3.1, and FKBP5” value ([1]; LNCaP and CWR22PC cells, 24 hours, 1 µM to 0.46 nM, potency compared with enzalutamide) was “in a dose-dependent manner with greater potency than AR antagonist enzalutamide” and the “AR target gene FKBP5 induced by R1881” value ([1]; LNCaP cells) was “inhibit”. The “AR target gene KLK3 induced by R1881” value ([1]; LNCaP cells) was “inhibit”, the “AR target gene KLK4 induced by R1881” value ([1]; LNCaP cells) was “inhibit” and the “AR target gene NKX3.1 induced by R1881” value ([1]; LNCaP cells) was “inhibit”.
